We go through nine compounds from ChEMBL document CHEMBL3797082, “A multicomponent pharmacophore fragment-decoration approach to identify selective LRRK2-targeting probes” (Medchemcomm, 2016).

SMILES strings stand for the structures. The source made the active and inactive calls. The rule behind the calls is not given here.

The target in experiment [1] is CDK2/Cyclin A2 (Homo sapiens) (UniProt P24941+P20248). Kind of experiment: Inhibition of full length human recombinant N-terminal GST-tagged CDK2 (M1-L298 residues)/Cyclin A2 (M1-L432 residues) expressed in baculovirus infected sf9 cells using histone H1 as substrate at 100 uM incubated for 10 mins by scintillation counting method relative to control.
For experiment [2], the target named is CDK9/Cyclin K (Homo sapiens) (UniProt P50750+O75909). Briefly: Inhibition of full length human recombinant N-terminal GST-tagged CDK9/Cyclin K expressed in baculovirus infected sf9 cells using CDKtide as substrate at 100 uM incubated for 10 mins by scintillation counting method relative to control.
The target of experiment [3] is T1, Leucine-rich repeat serine/threonine-protein kinase 2 (Homo sapiens, UniProt Q5S007, G2019S). Kind of experiment: Mixed type inhibition of human recombinant GST-tagged LRRK2 G2019S mutant (970 residues) expressed in baculovirus expression system assessed as enzyme-inhibitor complex by Michaelis-Menten kinetics in presence of varying level of ATP.
Experiment [4] deals with Leucine-rich repeat serine/threonine-protein kinase 2 (Homo sapiens), Q5S007 [G2019S]. Kind of experiment: Inhibition of human recombinant GST-tagged LRRK2 G2019S mutant (970 residues) expressed in baculovirus expression system using LRRKtide as substrate at 50 uM incubated for 10 mins by scintillation counting method in presence of [gamma33P]ATP.
Experiment [5] deals with Cyclin-dependent kinase 4/cyclin D1 (Homo sapiens) (UniProt P11802+P24385). Briefly: Inhibition of full length human recombinant N-terminal GST-tagged CDK4/Cyclin D1 expressed in baculovirus infected sf9 cells using RB-CTF as substrate at 100 uM incubated for 10 mins by scintillation counting method relative to control.
The target of experiment [6] is Tyrosine-protein kinase ABL1 (Homo sapiens) (UniProt P00519). Briefly: Inhibition of human recombinant N-terminal His-tagged ABL (27 residues) expressed in baculovirus infected sf9 cells using KKGEAIYAAPFA-NH2 as substrate at 100 uM incubated for 10 mins by scintillation counting method relative to control.
Tyrosine-protein kinase ABL1 (Homo sapiens), sequence (P00519 whole entry): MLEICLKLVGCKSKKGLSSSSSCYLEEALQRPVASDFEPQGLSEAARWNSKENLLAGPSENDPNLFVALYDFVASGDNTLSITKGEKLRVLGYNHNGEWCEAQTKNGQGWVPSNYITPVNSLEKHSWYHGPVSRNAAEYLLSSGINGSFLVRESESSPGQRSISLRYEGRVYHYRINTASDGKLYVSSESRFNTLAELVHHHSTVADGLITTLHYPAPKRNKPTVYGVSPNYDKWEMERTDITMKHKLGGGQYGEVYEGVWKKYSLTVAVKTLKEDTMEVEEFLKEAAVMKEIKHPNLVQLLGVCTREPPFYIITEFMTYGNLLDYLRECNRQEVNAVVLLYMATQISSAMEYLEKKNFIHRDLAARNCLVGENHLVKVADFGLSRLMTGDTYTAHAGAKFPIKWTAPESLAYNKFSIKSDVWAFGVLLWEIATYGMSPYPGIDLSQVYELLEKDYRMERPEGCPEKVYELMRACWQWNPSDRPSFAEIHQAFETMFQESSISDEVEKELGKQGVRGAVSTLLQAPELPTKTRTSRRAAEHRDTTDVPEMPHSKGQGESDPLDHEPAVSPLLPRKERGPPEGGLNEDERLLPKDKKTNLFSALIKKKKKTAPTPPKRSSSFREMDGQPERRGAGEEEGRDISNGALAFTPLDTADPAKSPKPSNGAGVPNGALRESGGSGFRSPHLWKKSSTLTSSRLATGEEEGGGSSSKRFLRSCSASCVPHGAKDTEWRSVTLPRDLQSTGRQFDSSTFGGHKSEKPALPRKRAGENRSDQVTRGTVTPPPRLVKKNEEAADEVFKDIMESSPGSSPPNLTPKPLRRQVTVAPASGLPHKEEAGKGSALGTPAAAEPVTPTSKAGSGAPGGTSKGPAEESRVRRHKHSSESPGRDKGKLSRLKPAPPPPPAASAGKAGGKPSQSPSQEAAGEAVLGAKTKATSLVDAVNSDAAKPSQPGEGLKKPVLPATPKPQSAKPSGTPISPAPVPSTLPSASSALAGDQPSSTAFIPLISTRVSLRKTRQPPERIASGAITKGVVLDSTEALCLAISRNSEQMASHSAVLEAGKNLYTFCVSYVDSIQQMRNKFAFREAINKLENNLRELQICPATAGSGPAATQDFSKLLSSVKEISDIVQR
Experiment [7] relates to Leucine-rich repeat serine/threonine-protein kinase 2 (Homo sapiens), Q5S007 [G2019S]. Kind of experiment: Inhibition of human recombinant GST-tagged LRRK2 G2019S mutant (970 residues) expressed in baculovirus expression system using LRRKtide as substrate incubated for 10 mins by scintillation counting method in presence of [gamma33P]ATP.
Experiment [8] addresses CDK9/cyclin T1 (Homo sapiens) (UniProt O60563+P50750). Briefly: Inhibition of full length human recombinant N-terminal GST-His6-tagged CDK9 (M1-F372 residues)/Cyclin T1 (M1-K726 residues) expressed in baculovirus infected sf9 cells using CDKtide as substrate at 100 uM incubated for 10 mins by scintillation counting method relative to control.
Experiment [9] addresses Leucine-rich repeat serine/threonine-protein kinase 2 (Homo sapiens) (UniProt Q5S007). Kind of experiment: Inhibition of human recombinant N-terminal GST-tagged LRRK2 (968 residues) expressed in baculovirus infected sf9 cells using LRRKtide as substrate at 50 uM incubated for 10 mins by scintillation counting method in presence of [gamma33P]ATP.
Experiment [10] has as its target Proto-oncogene tyrosine-protein kinase Src (Homo sapiens) (UniProt P12931). Briefly: Inhibition of full length human recombinant N-terminal His6-tagged SRC expressed in baculovirus infected sf21 cells using KVEKIGEGTYGVVYK as substrate at 100 uM incubated for 10 mins by scintillation counting method relative to control.
The target in experiment [11] is Dual specificity tyrosine-phosphorylation-regulated kinase 1A (Rattus norvegicus) (UniProt Q63470). Kind of experiment: Inhibition of recombinant rat N-terminal GST-tagged DYRK1A (1 to 499 residues) expressed in Escherichia coli using KKISGRLSPIMTEQ-NH2 as substrate at 100 uM incubated for 10 mins by scintillation counting method relative to control.
Experiment [12] addresses Leucine-rich repeat serine/threonine-protein kinase 2 (Homo sapiens) (UniProt Q5S007). Briefly: Inhibition of human recombinant N-terminal GST-tagged LRRK2 (968 residues) expressed in baculovirus infected sf9 cells using LRRKtide as substrate incubated for 10 mins by scintillation counting method in presence of [gamma33P]ATP.
For experiment [13], the target named is CDK6/cyclin D1 (Homo sapiens) (UniProt P24385+Q00534). Kind of experiment: Inhibition of full length human recombinant N-terminal His-tagged CDK6/N-terminal GST-tagged Cyclin D1 expressed in baculovirus infected sf9 cells using RB-CTF as substrate at 100 uM incubated for 10 mins by scintillation counting method relative to control.
The target of experiment [14] is Serine/threonine-protein kinase pim-1 (Homo sapiens) (UniProt P11309). Kind of experiment: Inhibition of full length human recombinant N-terminal GST-tagged PIM1 expressed in Escherichia coli using S6 Kinase/Rsk2 peptide2 as substrate at 100 uM incubated for 10 mins by scintillation counting method relative to control.
Serine/threonine-protein kinase pim-1 (Homo sapiens), sequence (P11309 whole entry, looked up): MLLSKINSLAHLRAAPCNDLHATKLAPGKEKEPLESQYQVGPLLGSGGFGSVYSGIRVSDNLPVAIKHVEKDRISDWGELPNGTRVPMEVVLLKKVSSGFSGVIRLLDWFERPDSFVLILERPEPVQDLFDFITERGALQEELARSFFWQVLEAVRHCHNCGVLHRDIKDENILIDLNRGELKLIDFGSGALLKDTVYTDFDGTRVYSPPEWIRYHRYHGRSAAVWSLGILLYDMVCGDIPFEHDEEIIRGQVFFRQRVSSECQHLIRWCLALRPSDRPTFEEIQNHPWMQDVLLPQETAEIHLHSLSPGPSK
The subject of experiment [15] is Leucine-rich repeat serine/threonine-protein kinase 2 (Homo sapiens), Q5S007 [G2019S]. Kind of experiment: Ratio of enzyme-substrate-inhibitor complex Ki to enzyme-inhibitor complex Ki for human recombinant GST-tagged LRRK2 G2019S mutant (970 residues) expressed in baculovirus expression system.
Experiment [16] concerns the target Phosphatidylinositol 4-kinase beta (Homo sapiens) (UniProt Q9UBF8). Briefly: Inhibition of full length human recombinant N-terminal GST-His-tagged PI4KB expressed in sf9 cells using phosphatidyl inositol:phosphatidyl serine (1:3) substrate at 100 uM by ADP-Glo kinase assay relative to control.
In experiment [17] the target is T1, Leucine-rich repeat serine/threonine-protein kinase 2. Briefly: Mixed type inhibition of human recombinant GST-tagged LRRK2 G2019S mutant (970 residues) expressed in baculovirus expression system assessed as enzyme-substrate-inhibitor complex by Michaelis-Menten kinetics in presence of varying level of ATP.
Experiment [18] is described as follows: Selectivity ratio of ID50 for human recombinant N-terminal GST-tagged LRRK2 (968 residues) expressed in baculovirus infected sf9 cells to ID50 for human recombinant GST-tagged LRRK2 G2019S mutant (970 residues) expressed in baculovirus expression system.
Experiment [19] addresses Receptor-type tyrosine-protein kinase FLT3 (Homo sapiens) (UniProt P36888). Kind of experiment: Inhibition of human recombinant N-terminal GST-His6-tagged FLT3 (R571-S993 residues) expressed in baculovirus infected sf9 cells using KVEKIGEGTYGVVYK as substrate at 100 uM incubated for 10 mins by scintillation counting method relative to control.
The target in experiment [20] is Tyrosine-protein kinase HCK (Homo sapiens) (UniProt P08631). Briefly: Inhibition of full length human recombinant N-terminal GST-His6-tagged HCK (M1 to P505 residues) expressed in baculovirus infected sf9 cells using KVEKIGEGTYGVVYK as substrate at 100 uM incubated for 10 mins by scintillation counting method relative to control.
The target in experiment [21] is Glycogen synthase kinase-3 beta (Homo sapiens) (UniProt P49841). Briefly: Inhibition of full length human recombinant N-terminal GST-tagged GSK3beta expressed in baculovirus infected sf9 cells using GSK3 substrate at 100 uM incubated for 10 mins by scintillation counting method relative to control.
Experiment [22] deals with Focal adhesion kinase 1 (Homo sapiens) (UniProt Q05397). Briefly: Inhibition of human recombinant FAK expressed in baculovirus infected sf9 cells using KVEKIGEGTYGVVYK as substrate at 100 uM incubated for 10 mins by scintillation counting method relative to control.
Focal adhesion kinase 1 (Homo sapiens), sequence (Q05397 2-1052 limits assumed): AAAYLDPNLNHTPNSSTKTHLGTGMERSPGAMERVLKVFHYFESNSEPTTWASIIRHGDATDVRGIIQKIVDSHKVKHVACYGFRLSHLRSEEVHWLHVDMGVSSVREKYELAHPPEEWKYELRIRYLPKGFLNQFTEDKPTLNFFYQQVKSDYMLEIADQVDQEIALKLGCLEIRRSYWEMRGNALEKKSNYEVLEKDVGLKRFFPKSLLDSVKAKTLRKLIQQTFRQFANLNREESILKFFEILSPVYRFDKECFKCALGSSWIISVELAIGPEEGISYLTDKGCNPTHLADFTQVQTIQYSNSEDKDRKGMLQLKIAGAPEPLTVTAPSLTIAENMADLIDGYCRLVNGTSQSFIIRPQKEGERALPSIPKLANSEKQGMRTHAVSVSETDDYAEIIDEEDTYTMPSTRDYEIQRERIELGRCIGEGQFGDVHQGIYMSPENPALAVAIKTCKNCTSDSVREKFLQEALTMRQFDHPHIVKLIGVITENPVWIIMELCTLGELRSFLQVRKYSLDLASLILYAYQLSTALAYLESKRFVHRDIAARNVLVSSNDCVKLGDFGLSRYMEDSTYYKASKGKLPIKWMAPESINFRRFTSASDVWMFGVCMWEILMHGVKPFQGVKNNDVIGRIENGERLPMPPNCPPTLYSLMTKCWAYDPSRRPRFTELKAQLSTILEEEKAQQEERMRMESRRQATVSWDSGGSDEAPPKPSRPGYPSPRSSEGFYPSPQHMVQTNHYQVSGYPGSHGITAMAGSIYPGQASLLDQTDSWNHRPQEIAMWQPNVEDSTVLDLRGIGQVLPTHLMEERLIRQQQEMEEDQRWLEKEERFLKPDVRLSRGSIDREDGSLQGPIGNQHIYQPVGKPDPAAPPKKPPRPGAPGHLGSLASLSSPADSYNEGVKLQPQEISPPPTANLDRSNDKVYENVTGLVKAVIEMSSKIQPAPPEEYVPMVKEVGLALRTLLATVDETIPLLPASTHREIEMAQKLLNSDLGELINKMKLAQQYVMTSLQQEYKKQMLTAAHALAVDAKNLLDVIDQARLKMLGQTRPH
Experiment [23] deals with Leucine-rich repeat serine/threonine-protein kinase 2 (Homo sapiens), Q5S007 [G2019S]. Briefly: Inhibition of human recombinant GST-tagged LRRK2 G2019S mutant (970 residues) expressed in baculovirus expression system using LRRKtide as substrate at 100 uM incubated for 10 mins by scintillation counting method in presence of [gamma33P]ATP.
Experiment [24] addresses Leucine-rich repeat serine/threonine-protein kinase 2 (Homo sapiens) (UniProt Q5S007). Briefly: Inhibition of human recombinant N-terminal GST-tagged LRRK2 (968 residues) expressed in baculovirus infected sf9 cells using LRRKtide as substrate at 100 uM incubated for 10 mins by scintillation counting method in presence of [gamma33P]ATP.
Experiment [25] concerns the target T1, Leucine-rich repeat serine/threonine-protein kinase 2. Kind of experiment: Competitive inhibition of human recombinant GST-tagged LRRK2 G2019S mutant (970 residues) expressed in baculovirus expression system assessed as enzyme-inhibitor complex by Michaelis-Menten kinetics in presence of varying level of ATP.

Phosphatidylinositol 4-kinase beta (Homo sapiens), sequence (Q9UBF8 2-816 limits assumed): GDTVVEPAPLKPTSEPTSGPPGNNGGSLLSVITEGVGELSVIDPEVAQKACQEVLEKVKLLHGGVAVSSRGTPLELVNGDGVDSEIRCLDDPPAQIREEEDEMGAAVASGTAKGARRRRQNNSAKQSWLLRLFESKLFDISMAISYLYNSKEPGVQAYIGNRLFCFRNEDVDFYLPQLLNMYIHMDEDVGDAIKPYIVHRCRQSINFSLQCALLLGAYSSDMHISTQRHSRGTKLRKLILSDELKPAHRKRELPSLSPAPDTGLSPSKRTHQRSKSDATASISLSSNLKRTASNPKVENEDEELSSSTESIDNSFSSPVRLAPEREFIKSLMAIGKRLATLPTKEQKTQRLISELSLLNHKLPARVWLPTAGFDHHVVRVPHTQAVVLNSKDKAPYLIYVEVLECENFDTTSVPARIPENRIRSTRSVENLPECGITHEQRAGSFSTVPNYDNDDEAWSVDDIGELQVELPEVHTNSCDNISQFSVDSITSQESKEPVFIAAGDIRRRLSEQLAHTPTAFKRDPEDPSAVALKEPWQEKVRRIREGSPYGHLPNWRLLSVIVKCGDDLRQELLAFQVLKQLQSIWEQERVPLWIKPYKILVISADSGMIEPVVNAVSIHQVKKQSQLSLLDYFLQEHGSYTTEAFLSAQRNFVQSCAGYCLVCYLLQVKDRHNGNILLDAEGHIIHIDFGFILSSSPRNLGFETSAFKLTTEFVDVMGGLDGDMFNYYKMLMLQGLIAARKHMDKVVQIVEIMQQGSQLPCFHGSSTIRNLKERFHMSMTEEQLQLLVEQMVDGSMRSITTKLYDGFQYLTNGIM
Proto-oncogene tyrosine-protein kinase Src (Homo sapiens), sequence (P12931 2-536 limits assumed): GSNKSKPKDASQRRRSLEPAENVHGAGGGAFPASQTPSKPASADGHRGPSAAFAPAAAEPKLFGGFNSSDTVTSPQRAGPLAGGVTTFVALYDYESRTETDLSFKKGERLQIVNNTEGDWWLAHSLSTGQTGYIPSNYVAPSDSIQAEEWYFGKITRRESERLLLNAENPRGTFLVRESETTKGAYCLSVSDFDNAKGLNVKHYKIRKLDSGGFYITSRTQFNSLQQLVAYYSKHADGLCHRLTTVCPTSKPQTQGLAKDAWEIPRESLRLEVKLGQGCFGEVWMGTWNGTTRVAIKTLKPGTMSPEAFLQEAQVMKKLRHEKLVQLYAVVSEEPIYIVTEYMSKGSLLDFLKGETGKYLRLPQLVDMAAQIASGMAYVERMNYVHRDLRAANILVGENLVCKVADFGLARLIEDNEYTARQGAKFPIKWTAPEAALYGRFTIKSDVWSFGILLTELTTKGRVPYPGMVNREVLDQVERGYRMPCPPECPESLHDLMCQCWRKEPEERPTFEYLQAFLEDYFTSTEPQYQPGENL
Receptor-type tyrosine-protein kinase FLT3 (Homo sapiens), sequence (P36888 whole entry, the tested form may be a part): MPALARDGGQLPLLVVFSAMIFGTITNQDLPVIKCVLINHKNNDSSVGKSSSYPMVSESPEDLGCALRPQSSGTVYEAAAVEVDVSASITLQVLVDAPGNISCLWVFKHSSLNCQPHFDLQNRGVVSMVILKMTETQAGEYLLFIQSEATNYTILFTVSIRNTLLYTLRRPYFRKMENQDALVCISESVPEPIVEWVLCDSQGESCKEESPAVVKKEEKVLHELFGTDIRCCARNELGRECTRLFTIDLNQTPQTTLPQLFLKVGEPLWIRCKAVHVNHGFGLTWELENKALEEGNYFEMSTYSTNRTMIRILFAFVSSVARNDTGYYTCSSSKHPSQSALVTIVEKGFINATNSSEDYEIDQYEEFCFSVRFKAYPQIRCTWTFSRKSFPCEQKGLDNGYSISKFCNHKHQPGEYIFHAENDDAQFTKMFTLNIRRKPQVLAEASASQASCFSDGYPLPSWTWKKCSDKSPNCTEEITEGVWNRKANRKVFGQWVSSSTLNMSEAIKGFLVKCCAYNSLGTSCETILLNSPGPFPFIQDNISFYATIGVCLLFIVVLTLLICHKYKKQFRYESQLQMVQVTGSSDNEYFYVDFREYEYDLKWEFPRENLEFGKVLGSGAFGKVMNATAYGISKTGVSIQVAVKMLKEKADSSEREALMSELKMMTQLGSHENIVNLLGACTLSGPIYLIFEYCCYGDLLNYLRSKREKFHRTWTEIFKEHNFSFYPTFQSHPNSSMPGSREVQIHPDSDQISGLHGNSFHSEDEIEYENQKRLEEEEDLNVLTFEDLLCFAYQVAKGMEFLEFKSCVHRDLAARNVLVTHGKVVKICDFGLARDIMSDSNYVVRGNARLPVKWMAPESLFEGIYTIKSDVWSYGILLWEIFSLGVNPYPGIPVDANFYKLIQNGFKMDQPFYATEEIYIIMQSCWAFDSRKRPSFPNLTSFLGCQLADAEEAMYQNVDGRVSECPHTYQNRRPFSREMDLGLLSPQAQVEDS

Consider `Cc1cc(N/N=C/c2ccc(O)cc2)nc2ccccc12`, for which the inhibition was 12% in [1]; 24% in [2]; 16% in [5]; 24% in [6]; 0% in experiment [8]; 21% in [10]. In addition, the inhibition in [11] amounted to 22%; in experiment [13], 40%; in experiment [14], 43%; in [16], 31%; in experiment [19], 62%; in [20], 0%. Further, the values for the inhibition in experiment [21] and in experiment [22] were 0% and 13%, respectively. The Ki in [3] came out at 550 nM; in [17] it was 2590 nM. In addition, the inhibition result in [4] and in experiment [9] was “Active” in each case. Besides, the ID50 in [7] amounted to 1300 nM; in experiment [12], 2700 nM. Moreover, the Ratio in [15] turned out to be 5. Further, in experiment [18], the Selectivity ratio amounted to 2.4.
On to `COc1ccc(/C=N/Nc2nc(C)cc(C)c2C#N)cc1`, for which the inhibition result in experiment [23] and in experiment [24] was “Active” throughout.
On to `COc1ccc(-c2nnc3c(NCCN4CCOCC4)cccn23)cc1OC`, for which the inhibition result in experiment [23] and in [24] was “Active” each time. Also, the inhibition stood at 22% in experiment [1]; 38% in [2]; 10% in experiment [5]; 19% in [6]; 24% in experiment [8]; 40% in experiment [10]. The inhibition in [11] amounted to 26%; in experiment [13], 18%; in experiment [14] it was 29%; in experiment [16], 3%; in [19] it was 0%; in [20] it was 0%. The inhibition in experiment [21] was determined as 14%; in [22], 8%. The results for the ID50 in [7] and in [12] were 9100 nM and 32000 nM, respectively. Besides, in [18], the Selectivity ratio came out at 3.5. Also, the Ki in experiment [25] came out at 5610 nM.
Regarding `COc1ccc(/C=N/Nc2ccccn2)cc1`, the inhibition entry in [23] and in experiment [24] was “Active” in each case.
Take `COc1ccc(/C=N/Nc2cc(C)c3ccccc3n2)cc1`: the inhibition in experiment [1] was 9%; in experiment [2], 53%; in experiment [5] it was 9%; in [6] it was 43%; in experiment [8], 0%; in [10], 31%. In addition, the inhibition in experiment [11] is 0%; in experiment [13], 42%; in experiment [14], 20%; in experiment [16] it was 32%; in [19], 50%; in [20], 0%. Also, the inhibition in experiment [21] stood at 0%; in experiment [22] it was 11%. The figures for the inhibition constant (Ki) in experiment [3] and in experiment [17] were 740 nM and 1800 nM, respectively. Moreover, the inhibition entry in experiment [4] and in experiment [9] was “Active” in each case. For the same compound, the ID50 is 900 nM in experiment [7] and 3000 nM in [12]. For the same compound, the Selectivity ratio in [18] stood at 4.
In the case of `C/C(=N\Nc1ccc2ccccc2n1)c1ccccc1O`, the inhibition in experiment [1] stood at 3%; in experiment [2] it was 2%; in experiment [5] it was 7%; in experiment [6] it was 6%; in [8], 1%; in [10], 5%. Also, the inhibition in experiment [11] turned out to be 9%; in experiment [13], 1%; in experiment [14] it was 3%; in experiment [16] it was 0%; in [19], 3%; in experiment [20] it was 0%. For the same compound, the inhibition in experiment [21] and in experiment [22] was 1% throughout. Also, the values for the Ki in experiment [3] and in experiment [17] were 3450 nM and 18400 nM, respectively. Also, the inhibition entry in experiment [4] and in experiment [9] was “Active” each time. Moreover, the ID50 in experiment [7] is 4800 nM; in experiment [12], 32600 nM. Also, in [15], the Ratio came to 5. In addition, in [18], the Selectivity ratio is 7.5.
Consider `COc1ccc(/C=N/Nc2ncccc2Cl)cc1OC`, for which the inhibition entry in experiment [23] and in experiment [24] was “Active” throughout.
Turning to `COc1ccc(/C=N/Nc2nc3c(c(-c4ccccc4)c2C#N)CCCC3)cc1`, the inhibition result in experiment [23] and in experiment [24] was “Active” in each case.
As for `Cc1cc(N/N=C/c2ccc(OC(=O)c3ccc(N4CCN(C)CC4)cc3)cc2)nc2ccccc12`, the inhibition result in [23] and in experiment [24] was “inactive” in each case.
